Results taken from patent publication US20130065818A1, “Arylamide Compounds And Compositions And Uses Thereof” (POLYMEDIX, priority 2006, published 2013).
Values after ≈ are worked out from the molar mass of the structure shown. Like-named read-outs stand apart in the source and are kept apart here.

System: S. aureus ATCC 27660
Experiment: MIC, control bacteria (Example 8)
Type: cell-based
Protocol: • Mueller-Hinton Broth in tubes was inoculated with 25 ocular isolates of Staphylococcus aureus fluoroquinolone-susceptible, Staphylococcus aureus fluoroquinolone-resistant, Staphylococcus epidermidis (Coagulase-negative Staphylococcus) fluoroquinolone-susceptible, Staphylococcus epidermidis (Coagulase-negative Staphylococcus) fluoroquinolone-resistant, Pseudomonas aeruginosa and Serratia marcescens, plus two controls (Staphylococcus aureus and E. coli) and incubated at 37° C. overnight on a shaker set at 250 rpm.
Control Bacteria—The two control bacteria (Staphylococcus aureus and E. coli) were treated as above.
Control Bacteria Set #1—this set of control bacteria were treated as the Streptococcus pneumoniae, Streptococcus viridans and Moraxella species (including Moraxella catarrhalis) test isolates above; the control bacteria underwent the same conditions as the test Streptococcus pneumoniae, Streptococcus viridans and Moraxella species (including Moraxella catarrhalis) isolates. This set of control bacteria was to determine whether there was a difference in the MICs by performing the MIC determinations in 2% lysed horse red blood cells with the standard method performed in Mueller-Hinton broth.
Control Bacteria Set #2—the control bacteria were added to 5 ml of Mueller-Hinton Broth without the 2% lysed horse red blood cells to achieve the standard inoculum concentration. This set of control bacteria is the normal control to determine whether the compounds are at the target MICs.
Control Bacteria Set #1—this set of control bacteria were treated as the Haemophilus influenzae test isolates above; the control bacteria underwent the same conditions as the test Haemophilus influenzae isolates. This set of control bacteria is to determine whether there was a difference in the MICs by performing the MIC determinations in HTM broth with the standard method performed in Mueller-Hinton broth.
Control Bacteria Set #2—the control bacteria were added to 5 ml of Mueller-Hinton Broth to achieve the standard inoculum concentration. This set of control bacteria is the normal control to determine whether the compounds are at the target MICs.
Ninety μl of the bacterial suspensions was dispensed in each well from column 1 to column 12. Each bacterial isolate was placed in one row of a 96 well polypropylene plate containing the test agents. The plates were placed on shaker at 15 minutes at room temperature, and then incubated at 37° C. overnight. MICs were determined visually as the lowest concentration of drug that inhibits visible bacterial growth.

[1] = Control Bacteria S. aureus ATCC 27660

SMILES: N=C(N)NCCCCC(=O)Nc1cc(C(F)(F)F)cc(NC(=O)c2cnc(C(=O)Nc3cc(C(F)(F)F)cc(NC(=O)CCCCNC(=N)N)c3SCCN)cn2)c1SCCN [Oligomer 5]
- Decrease of activity by addition of 2% lysed horse red blood cells to Mueller-Hinton broth [1]: increase or have no effect
- Decrease of activity by use of HTM broth [1]: approximately 8 fold
- MIC (Control Bacteria Set #1, run with Haemophilus influenzae MIC test, read-out: MIC): 4 mg/L (≈ 4.36 µM)
- MIC (S. aureus ATCC 27660): 0.78 mg/L (≈ 0.851 µM)
- MIC (S. aureus ATCC 27660, Control for MIC Test SA-FQR, first batch): 8 mg/L (≈ 8.72 µM)
- MIC (S. aureus ATCC 27660, Control for MIC Test SA-FQS, first batch): 16 mg/L (≈ 17.4 µM)
- MIC (S. aureus ATCC 27660, new batches, Control Only 1): 0.25 mg/L (≈ 0.273 µM)
- MIC (S. aureus ATCC 27660, new batches, Control Only 2): 0.25 mg/L (≈ 0.273 µM)
- MIC (S. aureus ATCC 27660, new batches, Control Only 3): 0.5 mg/L (≈ 0.545 µM)
- MIC (S. aureus ATCC 27660, new batches, Control Only 4): 0.5 mg/L (≈ 0.545 µM)
- MIC (Staphylococcus aureus, ATCC27660, Control Bacteria Set #1, run with Moraxella MIC test, read-out: MIC): 1 mg/L (≈ 1.09 µM)
- MIC (Staphylococcus aureus, ATCC27660, Control Only 1, read-out: MIC of control bacteria on day of MIC testing): 0.25 mg/L
- MIC (Staphylococcus aureus, ATCC27660, Control Only 2, read-out: MIC of control bacteria on day of MIC testing): 0.25 mg/L
- MIC (Staphylococcus aureus, ATCC27660, Control Only 3, read-out: MIC of control bacteria on day of MIC testing): 0.5 mg/L
- MIC (Staphylococcus aureus, ATCC27660, Control Only 4, read-out: MIC of control bacteria on day of MIC testing): 0.5 mg/L
- MIC (Staphylococcus aureus, ATCC27660, S. aureus ATCC 27660, Control Bacteria Set #1 (same conditions as test isolates), run with Streptococcus pneumoniae MIC test, read-out: MIC): 1 mg/L (≈ 1.09 µM)
- MIC (Staphylococcus aureus, ATCC27660, S. aureus ATCC 27660, Control Bacteria Set #1 (same conditions as test isolates), run with Streptococcus viridans group MIC test, read-out: MIC): 1 mg/L (≈ 1.09 µM)
- MIC (Staphylococcus aureus, ATCC27660, S. aureus ATCC 27660, Control Bacteria Set #2 (Mueller-Hinton Broth), run with Streptococcus pneumoniae MIC test, read-out: MIC): 2 mg/L (≈ 2.18 µM)
- MIC (Staphylococcus aureus, ATCC27660, S. aureus ATCC 27660, Control Bacteria Set #2 (Mueller-Hinton Broth), run with Streptococcus viridans group MIC test, read-out: MIC): 1 mg/L (≈ 1.09 µM)
- MIC (Staphylococcus aureus, ATCC27660, S. aureus ATCC 27660, control bacteria run with Pseudomonas aeruginosa MIC test, read-out: MIC): 0.25 mg/L (≈ 0.273 µM)
- MIC (Staphylococcus aureus, ATCC27660, S. aureus ATCC 27660, control bacteria run with S. aureus fluoroquinolone-resistant MIC test, read-out: MIC): 8 mg/L (≈ 8.72 µM)
- MIC (Staphylococcus aureus, ATCC27660, S. aureus ATCC 27660, control bacteria run with S. aureus fluoroquinolone-susceptible MIC test, read-out: MIC): 16 mg/L (≈ 17.4 µM)
- MIC (Staphylococcus aureus, ATCC27660, S. aureus ATCC 27660, control bacteria run with S. epidermidis fluoroquinolone-resistant MIC test, read-out: MIC): 0.25 mg/L (≈ 0.273 µM)
- MIC (Staphylococcus aureus, ATCC27660, S. aureus ATCC 27660, control bacteria run with S. epidermidis fluoroquinolone-susceptible MIC test, read-out: MIC): 0.25 mg/L (≈ 0.273 µM)
- MIC (Staphylococcus aureus, ATCC27660, S. aureus ATCC 27660, control bacteria run with Serratia marcescens MIC test, read-out: MIC): 0.5 mg/L (≈ 0.545 µM)
- MIC (Staphylococcus aureus, ATCC27660, S. aureus ATCC 27660, MIC previously obtained (target MIC), printed in parentheses, read-out: MIC for Control Bacteria within the parentheses): 0.78 mg/L (≈ 0.851 µM)
- MIC (Staphylococcus aureus, ATCC27660, S. aureus ATCC27660, read-out: MIC): 0.78 mg/L (≈ 0.851 µM)
- MIC (Staphylococcus aureus, ATCC27660, control for MIC test HI (Control Bacteria Set #2), read-out: MIC of control bacteria on day of MIC testing): 0.5 mg/L
- MIC (Staphylococcus aureus, ATCC27660, control for MIC test MS (Control Bacteria Set #2), read-out: MIC of control bacteria on day of MIC testing): 0.5 mg/L
- MIC (Staphylococcus aureus, ATCC27660, control for MIC test PA, read-out: MIC of control bacteria on day of MIC testing): 0.25 mg/L
- MIC (Staphylococcus aureus, ATCC27660, control for MIC test SA-FQR, read-out: MIC of control bacteria on day of MIC testing): 8 mg/L
- MIC (Staphylococcus aureus, ATCC27660, control for MIC test SA-FQS, read-out: MIC of control bacteria on day of MIC testing): 16 mg/L
- MIC (Staphylococcus aureus, ATCC27660, control for MIC test SE-FQR, read-out: MIC of control bacteria on day of MIC testing): 0.25 mg/L
- MIC (Staphylococcus aureus, ATCC27660, control for MIC test SE-FQS, read-out: MIC of control bacteria on day of MIC testing): 0.25 mg/L
- MIC (Staphylococcus aureus, ATCC27660, control for MIC test SM, read-out: MIC of control bacteria on day of MIC testing): 0.5 mg/L
- MIC (Staphylococcus aureus, ATCC27660, control for MIC test SP, read-out: MIC of control bacteria on day of MIC testing): 2 mg/L
- MIC (Staphylococcus aureus, ATCC27660, control for MIC test SV, read-out: MIC of control bacteria on day of MIC testing): 1 mg/L
- MIC (Staphylococcus aureus, ATCC27660, reference MIC printed in parentheses beside the day's control value, read-out: MIC for Control Bacteria (within the parentheses)): 0.78 mg/L (≈ 0.851 µM)
